# Measurements from patent US20250265708A1, “METHOD AND SYSTEM FOR CONTRACTILITY ASSESSMENT OF CARDIAC ORGANOIDS BASED ON PARTICLE IMAGE VELOCIMETRY, PROGRAM FOR THE SAME, AND RECORDING MEDIUM STORING PROGRAM THEREOF” (Research & Business Foundation SUNGKYUNKWAN UNIVERSITY, priority 2024, published 2025).
# Test system: cardiac organoid
# Assay: Drug reaction experiment: PIV-based contractility analysis of cardiac organoid treated with isoprenaline
# Assay type: cell-based, human
# Source text: Specifically, isoprenaline, which is a widely used […] (inotropic agent), is used to assess contractility of a cardiac organoid in response to drugs. […] As a result, the contraction-relaxation velocity profile and beating image of the cardiac organoids before drug treatment may be confirmed as shown in FIG. 10A and FIG. 10B, after drug treatment as shown in FIG. 10C and FIG. 10D, and 1 day after drug withdrawal as shown in FIG. 10E and FIG. 10F.
# [1] = cardiac organoid, after treating for 15 minutes with isoprenaline, vs before drug treatment
smiles,measurement,setting,value
CC(C)NCC(O)c1ccc(O)c(O)c1 (stereo not shown) [isoprenaline],heart beating of the organoid,1 day after drug withdrawal,returned to before the drug treatment
same,average contraction duration,[1],reduced
same,contraction time to peak,[1],reduced
same,heart beating rate,"cardiac organoid, after treating for 15 minutes with isoprenaline, vs before drug treatment (24.3±3.22 BPM)",increased significantly
